Patent publication US10544150B2, “NK-3 receptor selective antagonist compounds, pharmaceutical composition and methods for use in NK-3 receptors mediated disorders” (Ogeda SA, priority 2010, dated 2020)

Molecular target: human NK-3 receptor (Homo sapiens (Human), UniProt P29371)
Assay: 3H-SB222200 binding competition assay with human NK-3 receptor
Details: 3H-SB222200 displacement, CHO cell membranes expressing human NK3 receptor; read-out: Ki range
In short: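 Radioligand displacement: 5 nM tritiated SB222200 competed by varying compound concentrations on recombinant CHO membranes bearing human NK3, buffer pH 7.4 with HEPES, NaCl, CaCl2, MgCl2, BSA and saponin. Filter-bound radioactivity quantified; calculated Ki given as ranges from +++ (<500 nM) to # (>5 μM).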

human NK-3 receptor, sequence (P29371 whole entry): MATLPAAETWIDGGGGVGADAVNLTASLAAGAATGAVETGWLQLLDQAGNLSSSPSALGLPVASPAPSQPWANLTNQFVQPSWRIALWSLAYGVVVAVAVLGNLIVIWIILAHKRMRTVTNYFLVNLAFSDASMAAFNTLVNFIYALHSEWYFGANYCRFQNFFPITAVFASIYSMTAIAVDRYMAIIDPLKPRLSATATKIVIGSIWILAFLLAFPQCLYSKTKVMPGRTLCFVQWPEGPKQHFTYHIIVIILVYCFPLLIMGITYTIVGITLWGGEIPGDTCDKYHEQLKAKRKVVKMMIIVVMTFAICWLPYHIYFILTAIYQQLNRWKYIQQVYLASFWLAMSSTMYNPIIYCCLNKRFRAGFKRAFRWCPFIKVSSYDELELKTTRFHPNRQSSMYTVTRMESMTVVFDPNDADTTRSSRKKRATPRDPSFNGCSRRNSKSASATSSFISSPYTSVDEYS

SMILES	Ki
CC1c2nnc(-c3csc(-c4ccc(F)cc4)n3)n2CCN1C(=O)c1ccc(F)c(F)c1 (stereo not shown) [Compound 110, (3,4-difluorophenyl)(3-(2-(4-fluorophenyl)thiazol-4-yl)-8-methyl-5,6-dihydro-[1,2,4]triazolo[4,3-a]pyrazin-7(8H)-yl)methanone]	< 0.5 µM
CC1c2nnc(-c3csc(-c4ccccc4)n3)n2CCN1C(=O)c1ccc(-c2cccs2)cc1 (stereo not shown) [Compound 62, (8-methyl-3-(2-phenylthiazol-4-yl)-5,6-dihydro-[1,2,4]triazolo[4,3-a]pyrazin-7(8H)-yl)(4-(thiophen-2-yl)phenyl)methanone]	< 0.5 µM
CC1c2nnc(-c3nc(-c4ccccc4)no3)n2CCN1C(=O)c1ccc(-c2cccs2)cc1 (stereo not shown) [Compound 85, (8-methyl-3-(3-phenyl-1,2,4-oxadiazol-5-yl)-5,6-dihydro-[1,2,4]triazolo[4,3-a]pyrazin-7(8H)-yl)(4-(thiophen-2-yl)phenyl)methanone]	< 0.5 µM
CC(C)CC(=O)N1CCn2c(nnc2-c2ccc3ccccc3n2)C1 [Compound 95, 3-methyl-1-(3-(quinolin-2-yl)-5,6-dihydro-[1,2,4]triazolo[4,3-a]pyrazin-7(8H)-yl)butan-1-one]	1 to 5 µM
CC1c2nnc(-c3csc(-c4ccc(F)cc4)n3)n2CCN1C(=O)c1ccc(-c2ccccc2)cc1 (stereo not shown) [Compound 76, [1,1′-biphenyl]-4-yl(3-(2-(4-fluorophenyl)thiazol-4-yl)-8-methyl-5,6-dihydro-[1,2,4]triazolo[4,3-a]pyrazin-7(8H)-yl)methanone]	< 0.5 µM
N#Cc1ccc(-c2ccc(C(=O)N3CCn4c(nnc4-c4ccc5ccccc5n4)C3)cc2)cc1 [Compound 103, 4′-(3-(quinolin-2-yl)-5,6,7,8-tetrahydro-[1,2,4]triazolo[4,3-a]pyrazine-7-carbonyl)-[1,1′-biphenyl]-4-carbonitrile]	1 to 5 µM
O=C(c1ccc(F)cc1)N1CCn2c(-c3csc(-c4ccccc4)n3)nnc2C1CCO (stereo not shown) [Compound 51, (4-fluorophenyl)(8-(2-hydroxyethyl)-3-(2-phenylthiazol-4-yl)-5,6-dihydro-[1,2,4]triazolo[4,3-a]pyrazin-7(8H)-yl)methanone]	< 0.5 µM
CC1c2nnc(-c3csc(-c4ccccc4)n3)n2CCN1C(=O)c1ccc(-c2ccsc2)cc1 (stereo not shown) [Compound 64, (8-methyl-3-(2-phenylthiazol-4-yl)-5,6-dihydro-[1,2,4]triazolo[4,3-a]pyrazin-7(8H)-yl)(4-(thiophen-3-yl)phenyl)methanone]	< 0.5 µM
O=C(c1ccc(F)cc1)N1CCn2c(nnc2-c2cc3ccccc3cn2)C1 [Compound 15, (4-fluorophenyl)(3-(isoquinolin-3-yl)-5,6-dihydro-[1,2,4]triazolo[4,3-a]pyrazin-7(8H)-yl)methanone]	1 to 5 µM
C[C@@H]1c2nnc(-c3csc(N4CCOCC4)n3)n2CCN1C(=O)c1ccc(-c2ccc(F)cc2)cc1 [Compound 134, (R)-(4′-fluoro-[1,1′-biphenyl]-4-yl)(8-methyl-3-(2-morpholinothiazol-4-yl)-5,6-dihydro-[1,2,4]triazolo[4,3-a]pyrazin-7(8H)-yl)methanone]	< 0.5 µM
Cc1nc(-c2ccccc2)sc1-c1nnc2n1CCN(C(=O)c1ccc(F)cc1)C2C (stereo not shown) [Compound 75, (4-fluorophenyl)(8-methyl-3-(4-methyl-2-phenylthiazol-5-yl)-5,6-dihydro-[1,2,4]triazolo[4,3-a]pyrazin-7(8H)-yl)methanone]	0.5 to 1 µM
O=C(c1cc(-c2ccc(Cl)cc2)n[nH]1)N1CCn2c(nnc2-c2ccccn2)C1 [Compound 3, (3-(4-chlorophenyl)-1H-pyrazol-5-yl)(3-(pyridin-2-yl)-5,6-dihydro-[1,2,4]triazolo[4,3-a]pyrazin-7(8H)-yl)methanone]	1 to 5 µM

Continued, values first:

Ki	SMILES
< 0.5 µM	Cc1ccc(-c2nc(-c3nnc4n3CCN(C(=O)c3ccc(F)cc3)C4)cs2)cc1 [Compound 190, (4-fluorophenyl)(3-(2-(p-tolyl)thiazol-4-yl)-5,6-dihydro-[1,2,4]triazolo[4,3-a]pyrazin-7(8H)-yl)methanone]
< 0.5 µM	O=C(c1ccc(-c2cccs2)cc1)N1CCn2c(nnc2-c2csc(-c3ccccc3O)n2)C1 [Compound 262, (3-(2-(2-hydroxyphenyl)thiazol-4-yl)-5,6-dihydro-[1,2,4]triazolo[4,3-a]pyrazin-7(8H)-yl)(4-(thiophen-2-yl)phenyl)methanone]
< 0.5 µM	O=C(c1ccc(-c2ccc(F)cc2)cc1)N1CCn2c(nnc2-c2csc(-c3cccs3)n2)C1 [Compound 196, (4′-fluoro-[1,1′-biphenyl]-4-yl)(3-(2-(thiophen-2-yl)thiazol-4-yl)-5,6-dihydro-[1,2,4]triazolo[4,3-a]pyrazin-7(8H)-yl)methanone]
< 0.5 µM	O=C(c1ccc(-c2ccc(F)cc2)cc1)N1CCn2c(nnc2-c2csc(-c3ccccc3F)n2)C1 [Compound 183, (4′-fluoro-[1,1′-biphenyl]-4-yl)(3-(2-(2-fluorophenyl)thiazol-4-yl)-5,6-dihydro-[1,2,4]triazolo[4,3-a]pyrazin-7(8H)-yl)methanone]
1 to 5 µM	O=C(c1ccc(F)cc1)N1CCn2c(nnc2-c2csc(-c3ccncc3)n2)C1 [Compound 218, (4-fluorophenyl)(3-(2-(pyridin-4-yl)thiazol-4-yl)-5,6-dihydro-[1,2,4]triazolo[4,3-a]pyrazin-7(8H)-yl)methanone]
1 to 5 µM	C[C@H]1c2nnc(-c3csc(N4CCOCC4)n3)n2CCN1C(=O)c1ccc(-c2ccc(F)cc2)cc1 [Compound 161, (S)-(4′-fluoro-[1,1′-biphenyl]-4-yl)(8-methyl-3-(2-morpholinothiazol-4-yl)-5,6-dihydro-[1,2,4]triazolo[4,3-a]pyrazin-7(8H)-yl)methanone]
> 5 µM	Cc1scnc1-c1nnc2n1CCN(C(=O)c1ccc(-c3cccs3)cc1)C2 [Compound 275, (3-(5-methylthiazol-4-yl)-5,6-dihydro-[1,2,4]triazolo[4,3-a]pyrazin-7(8H)-yl)(4-(thiophen-2-yl)phenyl)methanone]
< 0.5 µM	CC(C)Cc1nc(-c2nnc3n2CCN(C(=O)c2ccc(-c4cccs4)cc2)C3)cs1 [Compound 256, (3-(2-isobutylthiazol-4-yl)-5,6-dihydro-[1,2,4]triazolo[4,3-a]pyrazin-7(8H)-yl)(4-(thiophen-2-yl)phenyl)methanone]
< 0.5 µM	O=C(c1ccc(-c2cccs2)cc1)N1CCn2c(nnc2-c2csc(N3CCCCC3)n2)C1 [Compound 247, (3-(2-(piperidin-1-yl)thiazol-4-yl)-5,6-dihydro-[1,2,4]triazolo[4,3-a]pyrazin-7(8H)-yl)(4-(thiophen-2-yl)phenyl)methanone]
< 0.5 µM	CC1CN(c2nc(-c3nnc4n3CCN(C(=O)c3ccc(-c5cccs5)cc3)C4)cs2)C(C)CO1 (stereo not shown) [Compound 261, (3-(2-(2,5-dimethylmorpholino)thiazol-4-yl)-5,6-dihydro-[1,2,4]triazolo[4,3-a]pyrazin-7(8H)-yl)(4-(thiophen-2-yl)phenyl)methanone]
0.5 to 1 µM	O=C(c1ccc(-c2ccc(F)cc2)cc1)N1CCn2c(nnc2-c2nc(-c3ccc(F)cc3)no2)C1 [Compound 205, (4′-fluoro-[1,1′-biphenyl]-4-yl)(3-(3-(4-fluorophenyl)-1,2,4-oxadiazol-5-yl)-5,6-dihydro-[1,2,4]triazolo[4,3-a]pyrazin-7(8H)-yl)methanone]
< 0.5 µM	N#Cc1ccc(-c2nc(-c3nnc4n3CCN(C(=O)c3ccc(-c5cccs5)cc3)C4)cs2)cc1 [Compound 236, 4-(4-(7-(4-(thiophen-2-yl)benzoyl)-5,6,7,8-tetrahydro-[1,2,4]triazolo[4,3-a]pyrazin-3-yl)thiazol-2-yl)benzonitrile]
< 0.5 µM	COCC1CCCCN1c1nc(-c2nnc3n2CCN(C(=O)c2ccc(-c4cccs4)cc2)C3)cs1 (stereo not shown) [Compound 279, (3-(2-(2-(methoxymethyl)piperidin-1-yl)thiazol-4-yl)-5,6-dihydro-[1,2,4]triazolo[4,3-a]pyrazin-7(8H)-yl)(4-(thiophen-2-yl)phenyl)methanone]
< 0.5 µM	Cn1nc(-c2nnc3n2CCN(C(=O)c2ccc(-c4cccs4)cc2)C3)cc1-c1ccccc1 [Compound 222, (3-(1-methyl-5-phenyl-1H-pyrazol-3-yl)-5,6-dihydro-[1,2,4]triazolo[4,3-a]pyrazin-7(8H)-yl)(4-(thiophen-2-yl)phenyl)methanone]
0.5 to 1 µM	CS(=O)(=O)Nc1ccc(-c2nc(-c3nnc4n3CCN(C(=O)c3ccc(-c5cccs5)cc3)C4)cs2)cc1 [Compound 283, N-(4-(4-(7-(4-(thiophen-2-yl)benzoyl)-5,6,7,8-tetrahydro-[1,2,4]triazolo[4,3-a]pyrazin-3-yl)thiazol-2-yl)phenyl)methanesulfonamide]
1 to 5 µM	COc1ccccc1-c1nc(-c2nnc3n2CCN(C(=O)c2ccc(F)cc2)C3)cs1 [Compound 201, (4-fluorophenyl)(3-(2-(2-methoxyphenyl)thiazol-4-yl)-5,6-dihydro-[1,2,4]triazolo[4,3-a]pyrazin-7(8H)-yl)methanone]
0.5 to 1 µM	O=C(c1ccc(F)cc1)N1CCn2c(nnc2-c2csc(Cc3ccc(Cl)cc3)n2)C1 [Compound 188, (3-(2-(4-chlorobenzyl)thiazol-4-yl)-5,6-dihydro-[1,2,4]triazolo[4,3-a]pyrazin-7(8H)-yl)(4-fluorophenyl)methanone]
< 0.5 µM	O=C(c1ccc(F)cc1)N1CCn2c(cnc2-c2csc(-c3ccc(F)cc3)n2)C1 [Compound 260, (4-fluorophenyl)(3-(2-(4-fluorophenyl)thiazol-4-yl)-5,6-dihydroimidazo[1,5-a]pyrazin-7(8H)-yl)methanone]
0.5 to 1 µM	CN1CCN(c2ccc(-c3nc(-c4nnc5n4CCN(C(=O)c4ccc(F)cc4)C5)cs3)cc2)CC1 [Compound 242, (4-fluorophenyl)(3-(2-(4-(4-methylpiperazin-1-yl)phenyl)thiazol-4-yl)-5,6-dihydro-[1,2,4]triazolo[4,3-a]pyrazin-7(8H)-yl)methanone]
